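Protocol summary: plate cells (96-well), add compound at 5 concentrations, incubate 48 h, interpolate endpoints linearly. GI50: concentration for 50% inhibition of growth. The concentration for full growth arrest is given as TGI.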
Assays:
Assay in all cases: growth of human tumour cells (NCI), 48 h
786-0 renal = test system: 786-0 renal
A498 renal = test system: A498 renal
A549 NSCLC = test system: A549 NSCLC
ACHN renal = test system: ACHN renal
BT-549 breast = test system: BT-549 breast
CAKI-1 renal = test system: CAKI-1 renal
CCRF-CEM leukemia = test system: CCRF-CEM leukemia
COLO 205 colon = test system: COLO 205 colon
DU-145 prostate = test system: DU-145 prostate
EKVX NSCLC = test system: EKVX NSCLC
HCC-2998 colon = test system: HCC-2998 colon
HCT-116 colon = test system: HCT-116 colon
HCT-15 colon = test system: HCT-15 colon
HL-60(TB) leukemia = test system: HL-60(TB) leukemia
HOP-62 NSCLC = test system: HOP-62 NSCLC
HOP-92 NSCLC = test system: HOP-92 NSCLC
HS 578T breast = test system: HS 578T breast
HT29 colon = test system: HT29 colon
IGROV1 ovarian = test system: IGROV1 ovarian
K-562 leukemia = test system: K-562 leukemia
KM12 colon = test system: KM12 colon
LOX IMVI melanoma = test system: LOX IMVI melanoma
M14 melanoma = test system: M14 melanoma
MALME-3M melanoma = test system: MALME-3M melanoma
MCF7 breast = test system: MCF7 breast
MDA-MB-231 breast = test system: MDA-MB-231 breast
MDA-MB-435 = test system: MDA-MB-435
MOLT-4 leukemia = test system: MOLT-4 leukemia
NCI-H226 lung = test system: NCI-H226 lung
NCI-H23 lung = test system: NCI-H23 lung
NCI-H460 lung = test system: NCI-H460 lung
NCI-H522 lung = test system: NCI-H522 lung
NCI/ADR-RES ovarian = test system: NCI/ADR-RES ovarian
OVCAR-3 ovarian = test system: OVCAR-3 ovarian
OVCAR-4 ovarian = test system: OVCAR-4 ovarian
OVCAR-5 ovarian = test system: OVCAR-5 ovarian
OVCAR-8 ovarian = test system: OVCAR-8 ovarian
PC-3 prostate = test system: PC-3 prostate
RPMI-8226 leukemia = test system: RPMI-8226 leukemia
RXF 393 renal = test system: RXF 393 renal
SF-268 CNS = test system: SF-268 CNS
SF-295 CNS = test system: SF-295 CNS
SF-539 CNS = test system: SF-539 CNS
SK-MEL-2 melanoma = test system: SK-MEL-2 melanoma
SK-MEL-28 melanoma = test system: SK-MEL-28 melanoma
SK-MEL-5 melanoma = test system: SK-MEL-5 melanoma
SK-OV-3 ovarian = test system: SK-OV-3 ovarian
SNB-19 CNS = test system: SNB-19 CNS
SNB-75 CNS = test system: SNB-75 CNS
SR leukemia = test system: SR leukemia
SW-620 colon = test system: SW-620 colon
T-47D breast = test system: T-47D breast
TK-10 renal = test system: TK-10 renal
UACC-257 melanoma = test system: UACC-257 melanoma
UO-31 renal = test system: UO-31 renal

SMILES: C=C1C(=O)O[C@H]2[C@H]1CC/C(COC(=O)NCCc1cccc(OC)c1)=C\CC[C@@]1(C)O[C@@H]21
- GI50 (786-0 renal): 1370 nM
- TGI (786-0 renal): 3070 nM
- GI50 (A498 renal): 2350 nM
- TGI (A498 renal): 7760 nM
- GI50 (A549 NSCLC): 7280 nM
- TGI (A549 NSCLC): 21900 nM
- GI50 (ACHN renal): 1120 nM
- TGI (ACHN renal): 2580 nM
- GI50 (BT-549 breast): 1510 nM
- TGI (BT-549 breast): 3120 nM
- GI50 (CAKI-1 renal): 1190 nM
- TGI (CAKI-1 renal): 2520 nM
- GI50 (CCRF-CEM leukemia): 340 nM
- TGI (CCRF-CEM leukemia): 1930 nM
- GI50 (COLO 205 colon): 1550 nM
- TGI (COLO 205 colon): 3280 nM
- GI50 (DU-145 prostate): 892 nM
- TGI (DU-145 prostate): 2160 nM
- GI50 (EKVX NSCLC): 1780 nM
- TGI (EKVX NSCLC): 4250 nM
- GI50 (HCC-2998 colon): 1680 nM
- TGI (HCC-2998 colon): 3290 nM
- GI50 (HCT-116 colon): 714 nM
- TGI (HCT-116 colon): 2080 nM
- GI50 (HCT-15 colon): 1020 nM
- TGI (HCT-15 colon): 2620 nM
- GI50 (HL-60(TB) leukemia): 1360 nM
- TGI (HL-60(TB) leukemia): 4340 nM
- GI50 (HOP-62 NSCLC): 4390 nM
- TGI (HOP-62 NSCLC): 16600 nM
- GI50 (HOP-92 NSCLC): 1840 nM
- TGI (HOP-92 NSCLC): 3960 nM
- GI50 (HS 578T breast): 3430 nM
- TGI (HS 578T breast): 21600 nM
- GI50 (HT29 colon): 1140 nM
- TGI (HT29 colon): 2880 nM
- GI50 (IGROV1 ovarian): 1260 nM
- TGI (IGROV1 ovarian): 3050 nM
- GI50 (K-562 leukemia): 613 nM
- TGI (K-562 leukemia): 6250 nM
- GI50 (KM12 colon): 4270 nM
- TGI (KM12 colon): 15600 nM
- GI50 (LOX IMVI melanoma): 1340 nM
- TGI (LOX IMVI melanoma): 2810 nM
- GI50 (M14 melanoma): 1290 nM
- TGI (M14 melanoma): 2920 nM
- GI50 (MALME-3M melanoma): 1840 nM
- TGI (MALME-3M melanoma): 3610 nM
- GI50 (MCF7 breast): 494 nM
- TGI (MCF7 breast): 2100 nM
- GI50 (MDA-MB-231 breast): 1560 nM
- TGI (MDA-MB-231 breast): 3470 nM
- GI50 (MDA-MB-435): 1580 nM
- TGI (MDA-MB-435): 3700 nM
- GI50 (MOLT-4 leukemia): 2090 nM
- TGI (MOLT-4 leukemia): 5000 nM
- GI50 (NCI-H226 lung): 1570 nM
- TGI (NCI-H226 lung): 3600 nM
- GI50 (NCI-H23 lung): 1860 nM
- TGI (NCI-H23 lung): 4330 nM
- GI50 (NCI-H460 lung): 3940 nM
- TGI (NCI-H460 lung): 16600 nM
- GI50 (NCI-H522 lung): 1020 nM
- TGI (NCI-H522 lung): 2690 nM
- GI50 (NCI/ADR-RES ovarian): 2950 nM
- TGI (NCI/ADR-RES ovarian): 10800 nM
- GI50 (OVCAR-3 ovarian): 995 nM
- TGI (OVCAR-3 ovarian): 2380 nM
- GI50 (OVCAR-4 ovarian): 1780 nM
- TGI (OVCAR-4 ovarian): 4370 nM
- GI50 (OVCAR-5 ovarian): 2250 nM
- TGI (OVCAR-5 ovarian): 6050 nM
- GI50 (OVCAR-8 ovarian): 2260 nM
- TGI (OVCAR-8 ovarian): 8030 nM
- GI50 (PC-3 prostate): 2300 nM
- TGI (PC-3 prostate): 5540 nM
- GI50 (RPMI-8226 leukemia): 917 nM
- TGI (RPMI-8226 leukemia): 4340 nM
- GI50 (RXF 393 renal): 673 nM
- TGI (RXF 393 renal): 2380 nM
- GI50 (SF-268 CNS): 1780 nM
- TGI (SF-268 CNS): 4910 nM
- GI50 (SF-295 CNS): 7260 nM
- TGI (SF-295 CNS): 20400 nM
- GI50 (SF-539 CNS): 1490 nM
- TGI (SF-539 CNS): 2960 nM
- GI50 (SK-MEL-2 melanoma): 1730 nM
- TGI (SK-MEL-2 melanoma): 3650 nM
- GI50 (SK-MEL-28 melanoma): 1350 nM
- TGI (SK-MEL-28 melanoma): 3300 nM
- GI50 (SK-MEL-5 melanoma): 1840 nM
- TGI (SK-MEL-5 melanoma): 3570 nM
- GI50 (SK-OV-3 ovarian): 13600 nM
- TGI (SK-OV-3 ovarian): 27700 nM
- GI50 (SNB-19 CNS): 1430 nM
- TGI (SNB-19 CNS): 3130 nM
- GI50 (SNB-75 CNS): 1470 nM
- TGI (SNB-75 CNS): 4710 nM
- GI50 (SR leukemia): 511 nM
- TGI (SR leukemia): 2860 nM
- GI50 (SW-620 colon): 502 nM
- TGI (SW-620 colon): 2010 nM
- GI50 (T-47D breast): 1610 nM
- TGI (T-47D breast): 4030 nM
- GI50 (TK-10 renal): 1610 nM
- TGI (TK-10 renal): 3250 nM
- GI50 (UACC-257 melanoma): 1530 nM
- TGI (UACC-257 melanoma): 3400 nM
- GI50 (UO-31 renal): 1390 nM
- TGI (UO-31 renal): 2860 nM

Source: PubChem BioAssay (NCI)
